The values that follow come from ChEMBL document CHEMBL1154624, “Novel class of LIM-kinase 2 inhibitors for the treatment of ocular hypertension and associated glaucoma” (J Med Chem, 2009).

Broadly, the IC50 is the concentration that inhibits the measured activity by half. The inhibition is how much of the control response was suppressed. A low value points to a weak effect.

One experiment concerns the target LIM domain kinase 2 (Homo sapiens, UniProt P53671). The experiment is described as follows: Inhibition of human recombinant LIMK2 expressed in baculovirus-Sf9 system by scintillation counting. In kind it is cell-based.
Experiment [1] is described as follows: Increase in outflow facility in pig eye at 10 nM by eye-perfusion assay. In kind it is functional, Sus scrofa.
Another experiment concerns PTM. Particulars: Sus scrofa, at 10 nM.
In experiment [2] the target is Rho-associated protein kinase 1 (Homo sapiens, UniProt Q13464). The experiment is described as follows: Inhibition of human ROCK1 expressed in baculovirus system.
Experiment [3] deals with Mus musculus. In words: Inhibition of dexamethasone-induced ocular hypertension in C57BL/6J Tyr c-Brd x 129S5/SvEvBrD hybrid mouse assessed as reduction of intraocular pressure at 3 ug after 2 hrs administered as cosolvent/HPMC based formulation. Format: functional, Eye.
Experiment [4] deals with Rho-associated protein kinase 2 (Homo sapiens, UniProt O75116). The experiment is described as follows: Inhibition of human ROCK2.
The species named for experiment [5] is Homo sapiens. In words: Selectivity ratio of IC50 for human LIMK2 to IC50 for human ROCK2.
The next experiment addresses LIM domain kinase 1 (Homo sapiens, UniProt P53667). In words: Inhibition of LIMK1.
Experiment [6] in a line: Increase in outflow facility in pig eye at 100 nM by eye-perfusion assay. Format: functional, Sus scrofa.
The species entered for experiment [7] is Homo sapiens. In words: Selectivity ratio of IC50 for human LIMK2 to IC50 for human ROCK1.
The test system of experiment [8] is Mus musculus. The experiment is described as follows: Inhibition of dexamethasone-induced ocular hypertension in C57BL/6J Tyr c-Brd x 129S5/SvEvBrD hybrid mouse assessed as reduction of intraocular pressure after 2 hrs administered as cosolvent/HPMC based formulation. In kind it is functional, organism-based. The conditions noted are these: Eye.
Experiment [9] concerns Mus musculus. In words: Inhibition of dexamethasone-induced ocular hypertension in C57BL/6J Tyr c-Brd x 129S5/SvEvBrD hybrid mouse assessed as reduction of intraocular pressure at 5 ug after 1 hr administered as xanthan gum formulation. In kind it is functional, Eye.

Sequence of LIM domain kinase 1 (P53667 whole entry, the tested form may be a part): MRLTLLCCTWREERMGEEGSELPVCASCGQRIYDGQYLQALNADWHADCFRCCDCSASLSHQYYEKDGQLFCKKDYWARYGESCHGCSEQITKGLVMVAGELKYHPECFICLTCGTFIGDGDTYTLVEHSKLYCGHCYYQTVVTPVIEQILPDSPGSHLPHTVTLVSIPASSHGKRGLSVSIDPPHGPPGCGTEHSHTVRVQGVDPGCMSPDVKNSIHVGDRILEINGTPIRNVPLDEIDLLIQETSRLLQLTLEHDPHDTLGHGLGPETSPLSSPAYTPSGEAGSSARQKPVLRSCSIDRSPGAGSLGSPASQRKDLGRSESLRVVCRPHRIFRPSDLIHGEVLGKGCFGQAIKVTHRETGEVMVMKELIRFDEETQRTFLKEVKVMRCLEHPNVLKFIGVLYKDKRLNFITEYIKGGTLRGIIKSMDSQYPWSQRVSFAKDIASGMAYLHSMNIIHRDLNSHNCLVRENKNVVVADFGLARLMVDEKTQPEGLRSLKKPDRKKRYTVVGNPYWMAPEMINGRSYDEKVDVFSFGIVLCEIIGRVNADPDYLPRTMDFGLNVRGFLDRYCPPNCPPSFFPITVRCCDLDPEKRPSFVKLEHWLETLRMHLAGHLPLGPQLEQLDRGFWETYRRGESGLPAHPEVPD
Sequence of Rho-associated protein kinase 1 (Q13464 whole entry): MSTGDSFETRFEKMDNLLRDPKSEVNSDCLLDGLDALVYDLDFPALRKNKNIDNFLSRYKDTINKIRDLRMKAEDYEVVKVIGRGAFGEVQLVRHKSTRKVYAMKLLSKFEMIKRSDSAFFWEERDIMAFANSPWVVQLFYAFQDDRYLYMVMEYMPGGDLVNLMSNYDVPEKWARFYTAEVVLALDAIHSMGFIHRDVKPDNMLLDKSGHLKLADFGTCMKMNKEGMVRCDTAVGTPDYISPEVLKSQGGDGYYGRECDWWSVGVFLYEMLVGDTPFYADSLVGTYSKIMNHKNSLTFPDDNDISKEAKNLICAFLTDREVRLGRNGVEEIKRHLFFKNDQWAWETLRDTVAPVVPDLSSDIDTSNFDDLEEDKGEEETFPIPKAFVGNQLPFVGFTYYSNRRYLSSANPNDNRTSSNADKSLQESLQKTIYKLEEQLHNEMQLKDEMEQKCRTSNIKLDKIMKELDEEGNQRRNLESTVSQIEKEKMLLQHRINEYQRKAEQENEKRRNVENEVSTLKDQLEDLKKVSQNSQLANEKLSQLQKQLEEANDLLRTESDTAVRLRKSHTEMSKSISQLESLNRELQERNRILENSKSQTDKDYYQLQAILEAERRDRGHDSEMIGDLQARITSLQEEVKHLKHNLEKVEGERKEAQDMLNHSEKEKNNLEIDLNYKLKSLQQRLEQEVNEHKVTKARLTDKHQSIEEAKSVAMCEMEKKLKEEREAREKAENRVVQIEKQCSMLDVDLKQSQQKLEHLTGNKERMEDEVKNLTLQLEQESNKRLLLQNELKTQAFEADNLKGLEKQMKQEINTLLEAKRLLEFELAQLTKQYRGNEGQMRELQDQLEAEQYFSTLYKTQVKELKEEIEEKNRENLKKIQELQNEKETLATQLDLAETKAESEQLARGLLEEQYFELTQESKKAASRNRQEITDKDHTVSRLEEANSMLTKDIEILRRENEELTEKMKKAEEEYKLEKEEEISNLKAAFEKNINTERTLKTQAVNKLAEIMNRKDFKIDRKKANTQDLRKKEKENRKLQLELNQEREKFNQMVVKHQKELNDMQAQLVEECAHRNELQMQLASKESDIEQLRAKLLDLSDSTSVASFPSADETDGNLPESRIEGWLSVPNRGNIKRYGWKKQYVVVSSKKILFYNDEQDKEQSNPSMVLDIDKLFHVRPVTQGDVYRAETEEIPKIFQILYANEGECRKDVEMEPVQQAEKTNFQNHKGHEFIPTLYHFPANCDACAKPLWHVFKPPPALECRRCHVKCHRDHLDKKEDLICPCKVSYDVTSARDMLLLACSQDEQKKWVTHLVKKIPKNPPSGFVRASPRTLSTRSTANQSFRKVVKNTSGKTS
Sequence of LIM domain kinase 2 (P53671 whole entry, the tested form may be a part): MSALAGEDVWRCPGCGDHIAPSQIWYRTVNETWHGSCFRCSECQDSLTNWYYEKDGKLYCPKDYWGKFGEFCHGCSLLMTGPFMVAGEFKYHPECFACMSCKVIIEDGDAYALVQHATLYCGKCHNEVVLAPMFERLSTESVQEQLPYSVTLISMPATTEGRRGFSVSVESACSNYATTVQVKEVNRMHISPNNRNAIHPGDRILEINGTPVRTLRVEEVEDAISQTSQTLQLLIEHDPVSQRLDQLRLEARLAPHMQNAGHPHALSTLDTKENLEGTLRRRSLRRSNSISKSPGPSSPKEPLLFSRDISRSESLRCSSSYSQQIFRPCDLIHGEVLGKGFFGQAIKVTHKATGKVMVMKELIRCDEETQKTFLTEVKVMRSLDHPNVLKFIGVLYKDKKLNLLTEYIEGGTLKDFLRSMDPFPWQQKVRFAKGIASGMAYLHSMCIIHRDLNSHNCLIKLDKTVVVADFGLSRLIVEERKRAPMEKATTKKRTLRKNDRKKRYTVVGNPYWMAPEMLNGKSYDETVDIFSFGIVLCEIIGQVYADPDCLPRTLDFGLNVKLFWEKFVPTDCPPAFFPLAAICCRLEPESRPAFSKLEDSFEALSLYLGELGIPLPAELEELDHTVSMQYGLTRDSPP
Sequence of Rho-associated protein kinase 2 (O75116 whole entry): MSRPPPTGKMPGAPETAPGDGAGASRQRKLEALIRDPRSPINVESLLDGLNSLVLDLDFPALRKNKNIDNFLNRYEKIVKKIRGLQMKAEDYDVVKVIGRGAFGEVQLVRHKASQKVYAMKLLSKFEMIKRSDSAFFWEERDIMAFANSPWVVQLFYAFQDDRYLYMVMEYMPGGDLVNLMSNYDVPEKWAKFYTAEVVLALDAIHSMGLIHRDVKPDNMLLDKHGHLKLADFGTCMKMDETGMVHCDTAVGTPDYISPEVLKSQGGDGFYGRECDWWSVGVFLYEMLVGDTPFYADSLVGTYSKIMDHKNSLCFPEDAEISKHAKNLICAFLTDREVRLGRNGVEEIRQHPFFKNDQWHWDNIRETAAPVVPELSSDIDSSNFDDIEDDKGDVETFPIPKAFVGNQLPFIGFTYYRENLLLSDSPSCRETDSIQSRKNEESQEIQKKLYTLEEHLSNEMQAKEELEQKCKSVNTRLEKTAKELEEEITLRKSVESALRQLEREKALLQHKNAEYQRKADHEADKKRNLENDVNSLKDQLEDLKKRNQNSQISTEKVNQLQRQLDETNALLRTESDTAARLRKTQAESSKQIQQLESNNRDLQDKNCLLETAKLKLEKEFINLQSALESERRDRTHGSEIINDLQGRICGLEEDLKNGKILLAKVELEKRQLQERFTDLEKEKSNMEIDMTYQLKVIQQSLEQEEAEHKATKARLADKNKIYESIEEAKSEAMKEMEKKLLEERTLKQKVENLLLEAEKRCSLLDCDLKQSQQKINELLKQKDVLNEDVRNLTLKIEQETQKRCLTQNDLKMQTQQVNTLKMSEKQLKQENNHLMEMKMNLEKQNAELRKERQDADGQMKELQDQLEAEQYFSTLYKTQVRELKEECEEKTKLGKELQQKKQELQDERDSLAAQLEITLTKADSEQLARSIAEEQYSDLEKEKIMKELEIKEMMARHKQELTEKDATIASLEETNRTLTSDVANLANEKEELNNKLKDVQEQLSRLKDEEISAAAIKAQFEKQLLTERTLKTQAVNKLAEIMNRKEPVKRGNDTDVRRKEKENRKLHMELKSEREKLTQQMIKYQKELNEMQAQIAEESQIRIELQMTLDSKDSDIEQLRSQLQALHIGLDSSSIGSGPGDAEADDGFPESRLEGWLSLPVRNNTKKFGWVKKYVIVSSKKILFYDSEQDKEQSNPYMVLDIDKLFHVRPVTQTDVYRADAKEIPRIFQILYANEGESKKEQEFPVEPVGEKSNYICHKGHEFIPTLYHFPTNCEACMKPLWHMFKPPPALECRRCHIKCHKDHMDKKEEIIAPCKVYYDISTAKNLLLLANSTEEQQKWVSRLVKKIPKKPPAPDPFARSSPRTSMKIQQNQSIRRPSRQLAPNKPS
Description for PTM: Inhibition of LIMK2 in pig PTM cells assessed as inhibition of cofilin-phosphorylation at 10 nM by Western blot

For the compound `C[C@H]1CN(c2ncnc3[nH]cc(Cl)c23)CCN1/C(=N/C#N)Nc1cccc(Br)c1`, the IC50 on LIM domain kinase 2 was found to be 1.2 nM.

As for `Cc1c[nH]c2ncnc(N3CCC(C(=O)Nc4cccc(Br)c4)CC3)c12`, at LIM domain kinase 2, the IC50 is 300 nM.

In [1], `C[C@@H](N)c1ccc(C(=O)Nc2ccnc3[nH]ccc23)cc1` [Y-39983] returned an Activity of 28%.

With `Cc1c[nH]c2ncnc(N3CCN(/C(=N/C#N)Nc4cccc(C(F)(F)F)c4)[C@@H](C)C3)c12`, the IC50 on LIM domain kinase 2 was 1.9 nM. Besides, the inhibition in the experiment with PTM amounted to 12%.

In the case of `Cc1c[nH]c2ncnc(N3CCN(C(=Nc4cccc(S(=O)(=O)NCCO)c4)NC#N)[C@@H](C)C3)c12`, the half-maximal inhibitory concentration (IC50) at LIM domain kinase 2 was determined as 2.9 nM.

As to `Cc1c[nH]c2ncnc(N3CCN(C(=O)Nc4cccc(OC(=O)N(C)C)c4)[C@@H](C)C3)c12`, the IC50 in experiment [2] was 490 nM; on LIM domain kinase 2 it was 1.2 nM; in experiment [4], 1100 nM; on LIM domain kinase 1, 3.2 nM. In addition, the Activity in the experiment on Mus musculus [3] was -3.2 mmHg; in experiment [6], 30%; with Mus musculus [8], “Dose-dependent effect”; in the experiment with Mus musculus [9], 3.6 mmHg. Also, the Ratio IC50 in the experiment listed under Homo sapiens [5] is above 900; in the experiment listed under Homo sapiens [7], above 100. The compound also gave an inhibition in the experiment on PTM of 61%.

Compound `Cc1c[nH]c2ncnc(N3CCN(/C(=N/C#N)Nc4cccc(C(=O)NC(C)C)c4)[C@@H](C)C3)c12` yielded an inhibition with PTM of 0%.

As to `Cc1c[nH]c2ncnc(N3CCN(/C(=N/S(C)(=O)=O)Nc4cccc(Br)c4)[C@@H](C)C3)c12`, at LIM domain kinase 2, the half-maximal inhibitory concentration (IC50) is 6.8 nM. In the experiment with PTM, this compound showed an inhibition of 48%.

As to `Cc1c[nH]c2ncnc(N3CCN(C(=O)Nc4cccc(C(=O)NC(C)C)c4)[C@@H](C)C3)c12`, on LIM domain kinase 2, the IC50 was determined as 5.5 nM. This compound also showed an inhibition in the experiment on PTM of 0%.

Regarding `Cc1cc2c(N3CCN(/C(=N/C#N)Nc4cccc(Br)c4)[C@@H](C)C3)ncnc2[nH]1`, the IC50 at LIM domain kinase 2 is 4.2 nM.

On to `C[C@H]1CN(c2nc(Cl)nc3[nH]ccc23)CCN1C(=Nc1cccc(Br)c1)NC#N`, for which, on LIM domain kinase 2, the half-inhibitory concentration (IC50) is above 1000 nM.

Consider `Cc1c[nH]c2ncnc(N3CCN(C(=O)Nc4ccc(F)c(Br)c4)[C@@H](C)C3)c12`, for which the half-maximal inhibitory concentration (IC50) came to 51 nM in experiment [2], 3.2 nM at LIM domain kinase 2, 280 nM in experiment [4] and 6.6 nM against LIM domain kinase 1. Also, the Ratio IC50 is 88 in the experiment filed under Homo sapiens [5] and 16 in the experiment filed under Homo sapiens [7]. Moreover, the Activity in the experiment with Mus musculus [9] was 3.6 mmHg. In addition, the inhibition with PTM came to 51%.

In the case of `Cc1c[nH]c2ncnc(N3CCN(C(=O)Nc4cccc(C(=O)NC(CO)CO)c4)[C@@H](C)C3)c12`, the IC50 at LIM domain kinase 2 was 3 nM. In the experiment on PTM, this compound gave an inhibition of 27%.

Regarding `Cc1c[nH]c2ncnc(N3CCN(/C(=N/C#N)Nc4cccc(C(=O)NCCO)c4)[C@@H](C)C3)c12`, the inhibition in the experiment with PTM was 9%.

Consider `Cc1ccc(NC(=O)C2CCN(c3ncnc4[nH]cc(C)c34)CC2)cc1`, for which, on LIM domain kinase 2, the half-inhibitory concentration (IC50) amounted to 1300 nM.

On to `Cc1c[nH]c2ncnc(N3CCN(C(=O)Nc4cccc(Cl)c4)[C@@H](C)C3)c12`, for which, at LIM domain kinase 2, the IC50 turned out to be 2.3 nM. In the experiment with PTM, this compound showed an inhibition of 0%.

Consider `Cc1c[nH]c2ncnc(N3CCN(C(=Nc4cccc(C(=O)NCCO)c4)NC#N)[C@@H](C)C3)c12`, for which the IC50 at LIM domain kinase 2 was 0.8 nM.

Consider `Cc1c[nH]c2ncnc(N3CC4CC3CN4C(=Nc3cccc(Br)c3)NC#N)c12` (stereo not given), for which, on LIM domain kinase 2, the IC50 was 76 nM.

In the case of `CC(C)(C)NC[C@H](O)COc1nsnc1N1CCOCC1` [TIMOLOL], in the experiment on Mus musculus [3], the Activity was -5.2 mmHg.

For the compound `Cc1c[nH]c2ncnc(N3C[C@H](C)N(C(=Nc4cccc(Br)c4)NC#N)C[C@H]3C)c12`, the IC50 at LIM domain kinase 2 was 3.9 nM.

Turning to `CC1CN(c2ncnc3[nH]ccc23)CCN1/C(=N/C#N)Nc1cccc(Br)c1` (racemic), the concentration for half-maximal inhibition (IC50) on LIM domain kinase 2 amounted to 8.1 nM.

On to `Cc1ccccc1NC(=O)C1CCN(c2ncnc3[nH]cc(C)c23)CC1`, for which the IC50 on LIM domain kinase 2 came to 11500 nM.

`Cc1c[nH]c2ncnc(N3CCC(C(=O)Nc4ccccc4)CC3)c12`: the IC50 on LIM domain kinase 2 worked out at 800 nM.

Turning to `Cc1c[nH]c2ncnc(N3CCN(/C(=N/C#N)Nc4cccc(S(=O)(=O)NC(C)C)c4)[C@@H](C)C3)c12`, the concentration for half-maximal inhibition (IC50) on LIM domain kinase 2 was determined as 1.7 nM. In addition, the inhibition in the experiment on PTM was found to be 0%.

Compound `Cc1c[nH]c2ncnc(N3CCN(/C(=N/C#N)Nc4cccc(C(C)(C)C)c4)[C@@H](C)C3)c12` came in with an inhibition in the experiment with PTM of 10%.

On to `COc1cccc(NC(=O)N2CCN(c3ncnc4[nH]cc(C)c34)CC2)c1`, for which the IC50 on LIM domain kinase 2 amounted to 140 nM.

Turning to `Cc1c[nH]c2ncnc(N3CCN(/C(=N/C#N)Nc4cccc(Br)c4)[C@@H](C)C3)c12`, the Ratio IC50 in the experiment filed under Homo sapiens [5] was above 900; in the experiment listed under Homo sapiens [7], above 100. In addition, the Activity in experiment [6] worked out at 30%; with Mus musculus [9], 3.7 mmHg. In addition, in the experiment on PTM, the inhibition turned out to be 50%.

For the compound `Cc1c[nH]c2ncnc(N3CCN(C(=O)Nc4cccc(C(=O)NCCO)c4)[C@@H](C)C3)c12`, at LIM domain kinase 2, the IC50 was determined as 3 nM. For the same compound, the inhibition with PTM is 0%.

For `Cc1c[nH]c2ncnc(N3C[C@@H](C)N(C(=O)Nc4cccc(Br)c4)[C@@H](C)C3)c12`, the IC50 on LIM domain kinase 2 came to 133 nM.

On to `Cc1c[nH]c2ncnc(N3CCN(C(=O)Nc4cccc(Br)c4)[C@@H](C)C3)c12`, for which the IC50 on LIM domain kinase 2 stood at 3.9 nM.

Take `Cc1c[nH]c2ncnc(N3CCN(C(=O)Nc4cccc(Br)c4)[C@H](C)C3)c12`: on LIM domain kinase 2, the half-maximal inhibitory concentration (IC50) came out at 37 nM.

Consider `Cc1cccc(NC(=O)N2CCN(c3ncnc4[nH]cc(C)c34)CC2)c1`, for which the IC50 at LIM domain kinase 2 is 92 nM.

For the compound `Cc1c[nH]c2ncnc(N3CCC(C(=O)Nc4cccc(Oc5ccccc5)c4)CC3)c12`, the IC50 at LIM domain kinase 2 came to 64 nM.

`Cc1c[nH]c2ncnc(N3CCN(/C(=N/C#N)Nc4cccc(Cl)c4)[C@@H](C)C3)c12`: the IC50 at LIM domain kinase 2 turned out to be 1.6 nM. Also, the inhibition in the experiment with PTM amounted to 49%.

Turning to `Cc1c[nH]c2ncnc(N3CCN(/C(=N/C#N)Nc4ccc(F)c(Br)c4)[C@@H](C)C3)c12`, the IC50 was 310 nM in [2], 1.5 nM at LIM domain kinase 2, 2200 nM in experiment [4] and 3.7 nM on LIM domain kinase 1. The Ratio IC50 was above 900 in the experiment filed under Homo sapiens [5] and above 100 in the experiment listed under Homo sapiens [7]. Moreover, in the experiment on PTM, the inhibition turned out to be 63%.

Consider `Cc1c[nH]c2ncnc(N3CCN(/C(=N/C#N)Nc4cccc(C#N)c4)[C@@H](C)C3)c12`, for which the concentration for half-maximal inhibition (IC50) on LIM domain kinase 2 amounted to 1.2 nM. Moreover, in the experiment with PTM, the inhibition was 18%.

`Cc1c[nH]c2ncnc(N3CCN(C(=Nc4cccc(C(C)(C)C)c4)NC#N)[C@@H](C)C3)c12`: on LIM domain kinase 2, the concentration for half-maximal inhibition (IC50) is 1.1 nM.

Take `Cc1c[nH]c2ncnc(N3CCN(/C(=N/C#N)Nc4cccc(Br)c4)[C@@H](C(C)C)C3)c12`: on LIM domain kinase 2, the IC50 was determined as 4.2 nM.

With `COc1ccc(NC(=O)C2CCN(c3ncnc4[nH]cc(C)c34)CC2)cc1`, on LIM domain kinase 2, the IC50 stood at 1500 nM.

For `Cc1cccc(NC(=O)C2CCN(c3ncnc4[nH]cc(C)c34)CC2)c1`, at LIM domain kinase 2, the IC50 stood at 650 nM.

Consider `Cc1c[nH]c2ncnc(N3CCN(/C(=N/C#N)Nc4cccc(C(=O)NCCN(C)C)c4)[C@@H](C)C3)c12`, for which the half-inhibitory concentration (IC50) on LIM domain kinase 2 turned out to be 3.4 nM. The inhibition in the experiment with PTM amounted to 0%.

Regarding `Cc1c[nH]c2ncnc(N3CC4CCC(C3)N4C(=O)Nc3cccc(Br)c3)c12`, the concentration for half-maximal inhibition (IC50) at LIM domain kinase 2 amounted to 16 nM.

For `Cc1c[nH]c2ncnc(N3CCN(/C(=N/C#N)Nc4cccc(Br)c4)CC3)c12`, the IC50 at LIM domain kinase 2 turned out to be 11 nM.

With `Cc1c[nH]c2ncnc(N3CCN(C(=O)Nc4cccc(Br)c4)CC3)c12`, the IC50 at LIM domain kinase 2 was 38 nM.

The compound `Cc1c[nH]c2ncnc(N3CCN(/C(=N/C#N)Nc4cccc(S(=O)(=O)NCCO)c4)[C@@H](C)C3)c12` yielded an inhibition with PTM of 22%.

For the compound `Cc1c[nH]c2ncnc(N3CCN(C(=Nc4cccc(C(=O)NC(C)C)c4)NC#N)[C@@H](C)C3)c12`, on LIM domain kinase 2, the 50% inhibitory concentration (IC50) was determined as 3.5 nM.

Turning to `Cc1c[nH]c2ncnc(N3CCN(/C(=N\C#N)Nc4cccc(Br)c4)[C@@H](C)C3)c12`, the half-maximal inhibitory concentration (IC50) was 260 nM in [2], 0.9 nM on LIM domain kinase 2, 2700 nM in [4] and 0.5 nM against LIM domain kinase 1.

Regarding `Cc1c[nH]c2ncnc(N3CCN(/C(=N/C#N)Nc4cccc(F)c4)[C@@H](C)C3)c12`, on LIM domain kinase 2, the 50% inhibitory concentration (IC50) was 1.8 nM. The compound also registered an inhibition in the experiment with PTM of 39%.

In the case of `COc1cccc(NC(=O)C2CCN(c3ncnc4[nH]cc(C)c34)CC2)c1`, on LIM domain kinase 2, the half-maximal inhibitory concentration (IC50) is 520 nM.
